# From paper PMC6987146, “Potent inhibition of HIV replication in primary human cells by novel synthetic polyketides inspired by Aureothin” (Scientific Reports, 2020)
# Assays:
# HIV-1OMVP5180-91 = assay: Inhibition of clinical isolate HIV-1O MVP5180-91 in PBMCs; format: cell-based; conditions: PBMC, HIV-type 1, Outlier group
# Source text: Clinical isolates represented the following HIV genotypes: HIV-1MMVP899-87: HIV-type 1, Major group; HIV-1OMVP5180-91: HIV-type 1, Outlier group; HIV-2MVP10668-93: HIV-type 2; HIV-1V13-03413B: HIV-type 1, Major group/B-clade, isolate with multiple drug-resistance mutations. Depicted are the means of three independent experiments with biological triplicates (n = 3; m = 3) and standard deviations (SD).
# Isolation of primary clinical HIV-isolates HIV-1MMVP899-87, HIV-1OMVP5180-91, HIV-1V13-03413B and HIV-2MVP10668-93 is described in[43]. The HIV-1 M group/B-clade isolate (HIV-1V13-03413B) was isolated from a patient with virological treatment failure. Clinical isolates were produced from HIV infected H9 cells as described.
# To evaluate anti-HIV efficacies of test compounds in primary human target cells, stimulated PBMCs were seeded in 96-well plates at a density of 500,000 cells per well, different #7concentrations of the compound (serial dilutions) and virus inoculum (MOI of 0.5) added to the PBMCs and cultures incubated for 48 h. Infectious virus production was quantified by transferring 35 µl of supernatant from the PBMC cultures to LC5-RIC cells, seeded in black 96-well plates one day earlier. LC5-RIC cultures were then incubated for 72 h and analysed for DsRed1 reporter expression and anti-HIV activity calculated as described for the EASY-HIT assay.
# PBMC proteome = assay: Proteomics (LC-MSMS) of PBMCs treated with compound #7, with or without HIV exposure; format: cell-based, human; conditions: PBMCs from three donors; ≥2-fold change
# Protocol: Stimulated PBMCs or CD4+ cells (5,000,000 cells) were seeded into 12-well plates before compound treatment and inoculation with HIV-1LAI at an MOI of 0.5, followed by 48 h incubation at 37 °C, 5% CO2. HIV inhibition was confirmed by quantifying infectious virus production in LC5-RIC cells as described above. Protein lysates were prepared from cells harvested, washed with PBS and lysed by incubating the cells for 10 min at 4 °C in lysis buffer (100 mM Tris-HCl pH 8.3, 150 mM NaCl, 1% glycerol, 1% NP-40, 0.5% deoxycholate, 0.1% SDS, 0.1% Triton-X100) and centrifuged for 20 min at 4 °C, 16,000 g to clear protein lysates. Protein concentrations were determined by using the Pierce^TM BCA Protein Assay Kit (ThermoFisher Scientific) according to manufacturer’s protocol. The proteomes of PBMCs from three different donors were analysed by LC-MSMS and data enrichment analysis was carried out using GeneRanker (Intrexon). For detailed information see Supplementary Methods.
# After measuring the protein concentration of the cell lysates equal total protein amounts (10 µg per sample) were proteolysed with trypsin as described ^4 by a modified filter-aided sample preparation (FASP) procedure ^5.
# Data analysis. The results from three donors were regarded as biological replicates. […]
smiles,measurement,setting,value
COc1oc(C2C/C(=C/C(C)=C/c3ccc(C(F)(F)F)cc3)CO2)c(C)c(=O)c1C (stereo not drawn) [compound #7],IC50,HIV-1OMVP5180-91,2.88 nM
same,IC90,HIV-1OMVP5180-91,8.65 nM
same,proportion of differentially expressed proteins (of total proteins detected),PBMC proteome,< 10%
